From patent US20090170827A1, “Acid Addition Salt of Dihydropyridine Derivative” (Daiichi Sankyo Company , Limited, priority 2005, published 2009)

Assay: Thermal stability test
Format: physicochemical
Method: The test compound was placed in a glass bottle and allowed to stand under the following conditions (1) and (2). After a certain period of time had elapsed, the residual rate of the active ingredient [compound (I)] in the test compound was measured by high performance liquid chromatography.
(1): Closed state, 60° C.;
(2): Non-closed state, 40° C., humidity 75%.
The measurement conditions in high performance liquid chromatography are as follows.
Column: L-column ODS [4.6 mm×250 mm, manufactured by Chemicals Evaluation and Research Institute, Japan]
Mobile layer: acetonitrile/22 mM potassium dihydrogenphosphate buffer/methanol=455/350/195 (V/V/V) (adjusted to pH 5.5 by phosphoric acid)
Column temperature: 40° C.
Detection wavelength: 220 nm
The residual rate (%) was calculated by the following formula.
The residual rate (%)=[1−(sum of peak area percentages of impurities and decomposed products)]×100

[1] = Condition (1): closed state, 60° C.
[2] = Condition (1): closed state, 60° C., time 0 month, dihydrochloride
[3] = Condition (1): closed state, 60° C., time 1 month, dihydrochloride
[4] = Condition (1): closed state, 60° C., time 3 months
[5] = Condition (2): non-closed state, 40° C., humidity 75%, dihydrochloride
[6] = Condition (2): non-closed state, 40° C., humidity 75%, time 0 month, dihydrochloride
[7] = Condition (2): non-closed state, 40° C., humidity 75%, time 1 month
[8] = Condition (2): non-closed state, 40° C., humidity 75%, time 3 months
[9] = Condition (1): closed state, 60° C., time 0 month
[10] = Condition (1): closed state, 60° C., time 1 month
[11] = Condition (1): closed state, 60° C., time 6 months
[12] = Condition (2): non-closed state, 40° C., humidity 75%
[13] = Condition (2): non-closed state, 40° C., humidity 75%, time 0 month
[14] = Condition (2): non-closed state, 40° C., humidity 75%, time 6 months

Molecule | stability (in words) [1] | Residual rate of Compound (I) [2] [%] | Residual rate of Compound (I) [3] [%] | Residual rate of Compound (I) [4] [%] | stability (in words) [5] | Residual rate of Compound (I) [6] [%] | Residual rate of Compound (I) [7] [%] | Residual rate of Compound (I) [8] [%] | Residual rate of Compound (I) [9] [%] | Residual rate of Compound (I) [10] [%] | Residual rate of Compound (I) [11] [%] | stability (in words) [12] | Residual rate of Compound (I) [13] [%] | Residual rate of Compound (I) [14] [%] | Residual rate of Compound (I) (Condition (2): non-closed state, 40° C., humidity 75%, time 1 month, Dihydrochloride) [%]
CC1=C(C(=O)OC(C)C)C(c2cccc([N+](=O)[O-])c2)C(C(=O)OC2CN(C(c3ccccc3)c3ccccc3)C2)=C(N)N1.Cl.Cl (centres unmarked) [Comparative Example 1, 2-Amino-1,4-dihydro-6-methyl-4-(3-nitrophenyl)-3,5-pyridinedicarboxylic acid 3-(1-diphenylmethylazetidin-3-yl)ester 5-isopropyl ester dihydrochloride, reference compound] | extremely low stability | 98.1 | 60.0 | 58.9 | low stability | 98.1 | 62.9 | 59.0 |  |  |  |  |  |  | 
CC1=C(C(=O)OC(C)C)C(c2cccc([N+](=O)[O-])c2)C(C(=O)OC2CN(C(c3ccccc3)c3ccccc3)C2)=C(N)N1.Cc1ccc(S(=O)(=O)O)cc1.Cc1ccc(S(=O)(=O)O)cc1 (centres unmarked) [Example 6, 2-Amino-1,4-dihydro-6-methyl-4-(3-nitrophenyl)-3,5-pyridinedicarboxylic acid 3-(1-diphenylmethylazetidin-3-yl)ester 5-isopropyl ester di-p-toluenesulfonate] |  |  |  | 98.3 |  |  | 97.5 | 96.4 | 99.6 | 98.8 | 97.3 | excellent stability | 99.6 | 94.5 | 
CC1=C(C(=O)OC(C)C)C(c2cccc([N+](=O)[O-])c2)C(C(=O)OC2CN(C(c3ccccc3)c3ccccc3)C2)=C(N)N1.CS(=O)(=O)O.CS(=O)(=O)O (centres unmarked) [Example 3, 2-Amino-1,4-dihydro-6-methyl-4-(3-nitrophenyl)-3,5-pyridinedicarboxylic acid 3-(1-diphenylmethylazetidin-3-yl)ester 5-isopropyl ester dimethanesulfonate] |  |  |  | 98.5 |  |  |  |  | 99.6 | 98.7 |  |  |  |  | 
2-Amino-1,4-dihydro-6-methyl-4-(3-nitrophenyl)-3,5-pyridinedicarboxylic acid 3-(1-diphenylmethylazetidin-3-yl)ester 5-isopropyl Ester Dinaphthalenesulfonate [Example 7] | equal in stability |  |  | 95.4 |  |  |  |  | 99.4 | 97.3 | 93.0 |  |  |  | 
CC1=C(C(=O)OC(C)C)C(c2cccc([N+](=O)[O-])c2)C(C(=O)OC2CN(C(c3ccccc3)c3ccccc3)C2)=C(N)N1.Cl.Cl (centres unmarked) [Comparative Example 2, 2-Amino-1,4-dihydro-6-methyl-4-(3-nitrophenyl)-3,5-pyridinedicarboxylic Acid 3-(1-diphenylmethylazetidin-3-yl)ester 5-isopropyl Ester Dihydrochloride, reference compound] | extremely low stability | 97.3 | 10.3 |  | extremely low stability | 97.3 |  |  |  |  |  |  |  |  | 11.3
CC1=C(C(=O)OC(C)C)C(c2cccc([N+](=O)[O-])c2)C(C(=O)OC2CN(C(c3ccccc3)c3ccccc3)C2)=C(N)N1.CS(=O)(=O)O.CS(=O)(=O)O.CS(=O)(=O)O (centres unmarked) [Example 4, 2-Amino-1,4-dihydro-6-methyl-4-(3-nitrophenyl)-3,5-pyridinedicarboxylic acid 3-(1-diphenylmethylazetidin-3-yl)ester 5-isopropyl ester trimethanesulfonate] |  |  |  | 98.1 |  |  | 99.1 | 98.8 | 99.5 | 98.6 |  | excellent stability | 99.5 |  | 
CC1=C(C(=O)OC(C)C)C(c2cccc([N+](=O)[O-])c2)C(C(=O)OC2CN(C(c3ccccc3)c3ccccc3)C2)=C(N)N1.O=C(O)CC(O)(CC(=O)O)C(=O)O (single isomer, unassigned) [Example 2, 2-Amino-1,4-dihydro-6-methyl-4-(3-nitrophenyl)-3,5-pyridinedicarboxylic acid 3-(1-diphenylmethylazetidin-3-yl)ester 5-isopropyl ester monocitrate] | equal in stability |  |  | 95.8 |  |  |  |  | 98.8 | 96.9 |  |  |  |  | 
CC1=C(C(=O)OC(C)C)C(c2cccc([N+](=O)[O-])c2)C(C(=O)OC2CN(C(c3ccccc3)c3ccccc3)C2)=C(N)N1.O=S(=O)(O)O (centres unmarked) [Comparative Example 3, 2-Amino-1,4-dihydro-6-methyl-4-(3-nitrophenyl)-3,5-pyridinedicarboxylic Acid 3-(1-diphenylmethylazetidin-3-yl)ester 5-isopropyl Ester Monosulfate, reference compound] | did not have high stability |  |  | 94.9 |  |  | 93.9 | 88.9 | 99.5 | 96.9 | 92.8 | low stability | 99.5 | 84.8 | 
CC1=C(C(=O)OC(C)C)C(c2cccc([N+](=O)[O-])c2)C(C(=O)OC2CN(C(c3ccccc3)c3ccccc3)C2)=C(N)N1.O=S(=O)(O)c1ccccc1.O=S(=O)(O)c1ccccc1 (centres unmarked) [Example 5, 2-Amino-1,4-dihydro-6-methyl-4-(3-nitrophenyl)-3,5-pyridinedicarboxylic acid 3-(1-diphenylmethylazetidin-3-yl)ester 5-isopropyl ester dibenzenesulfonate] | equal in stability |  |  | 96.5 |  |  |  |  | 99.7 | 98.6 | 93.3 |  |  |  | 
2-Amino-1,4-dihydro-6-methyl-4-(3-nitrophenyl)-3,5-pyridinedicarboxylic Acid 3-(1-diphenylmethylazetidin-3-yl)ester 5-isopropyl Ester Hemifumarate [Comparative Example 4, reference compound] | did not have high stability |  |  | 93.0 |  |  | 94.8 | 91.3 | 99.7 | 96.7 |  | low stability | 99.7 |  | 
